One data set concerns the target MDM2 (Homo sapiens, UniProt Q00987). The data set can be described thus: fluorescence polarization assay, MDM2 binding. (In fluorescence polarisation assays a small probe gives low polarisation when free and higher when bound to something large.)
For another data set, the target named is T1, MDMX (Homo sapiens, UniProt O15151).
T1 sequence (O15151 1-490): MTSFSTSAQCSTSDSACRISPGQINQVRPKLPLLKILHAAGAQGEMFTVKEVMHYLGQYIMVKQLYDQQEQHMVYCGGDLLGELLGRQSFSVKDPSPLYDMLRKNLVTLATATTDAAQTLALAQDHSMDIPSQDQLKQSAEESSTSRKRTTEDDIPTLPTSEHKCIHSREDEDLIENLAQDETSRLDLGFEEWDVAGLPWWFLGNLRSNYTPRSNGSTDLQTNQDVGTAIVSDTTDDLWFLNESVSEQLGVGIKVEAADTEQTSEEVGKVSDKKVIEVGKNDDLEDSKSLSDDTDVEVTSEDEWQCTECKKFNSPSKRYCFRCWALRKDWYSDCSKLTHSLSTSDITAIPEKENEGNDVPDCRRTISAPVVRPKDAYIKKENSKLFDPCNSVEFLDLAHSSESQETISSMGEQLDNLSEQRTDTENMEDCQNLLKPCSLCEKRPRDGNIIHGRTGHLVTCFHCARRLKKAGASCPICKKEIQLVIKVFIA
The experiment in a line: fluorescence polarization assay, MDMX binding.

The mark [1] stands for this setting: read-out: Ki (μM) ± SD MDM2, fluorescence polarization, PMDM-F peptide, pH 7.5.
The mark [2] stands for this setting: read-out: Ki (μM) ± SD MDMX, fluorescence polarization, PMDM-F peptide, pH 7.5.

What is called melting point is the temperature, or range, at which the solid turns liquid. Usually Ki stands for a measure of affinity in units of concentration, obtained from inhibition or displacement.

The structures appear in SMILES notation. Read-outs that look alike come from different tables or passages of the source. Some results are limits rather than exact numbers.

MDM2, sequence (Q00987 whole entry): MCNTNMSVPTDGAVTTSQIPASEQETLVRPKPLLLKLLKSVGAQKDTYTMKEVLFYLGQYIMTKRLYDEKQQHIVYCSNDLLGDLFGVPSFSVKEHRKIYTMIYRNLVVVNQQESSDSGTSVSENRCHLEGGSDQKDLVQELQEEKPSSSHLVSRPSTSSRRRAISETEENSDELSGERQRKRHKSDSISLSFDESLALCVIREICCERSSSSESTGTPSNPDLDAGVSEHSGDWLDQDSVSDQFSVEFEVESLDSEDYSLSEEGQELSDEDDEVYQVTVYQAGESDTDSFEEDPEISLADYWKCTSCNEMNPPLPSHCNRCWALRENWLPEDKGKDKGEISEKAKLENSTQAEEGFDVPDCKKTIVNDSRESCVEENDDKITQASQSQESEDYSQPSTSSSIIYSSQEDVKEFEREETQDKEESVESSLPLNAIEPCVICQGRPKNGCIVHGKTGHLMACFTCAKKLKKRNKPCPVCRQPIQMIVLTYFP
Procedure for MDM2: (§1) The MDM2 and MDMX binding evaluation for the target compounds was carried out using the fluorescence polarization assay.
(§2) Dose-dependent MDM2 and MDMX binding evaluations were carried out using the fluorescence polarization assay.
(§3) A total of 30 nM preincubated (30 min) MDM2 (or MDMX) and 10 nM PMDM-F peptide in reaction buffer (100 μL, potassium phosphate, 100 mM; bovine gamma globulin, 100 mg/mL; sodium azide, 0.02%) were added into a 96-well plate containing the tested compounds at pH 7.5.
Procedure for MDMX: as §1, §2, §3

As to `Cc1ccccc1S(=O)(=O)N1C(=O)/C(=C/c2ccc(Cl)cc2)c2ccccc21` [Compound A24, (E)-3-(4-chlorobenzylidene)-1-(o-tolylsulfonyl)indolin-2-one], the melting point lay in the range of 155.2 to 157.1 °C. Also, the inhibition constant (Ki) on MDM2 (setting [1]) was determined as 3.17 ± 0.37 µM. The Ki on MDMX (setting [2]) was determined as 34.7 ± 4.02 µM.

`O=C1/C(=C/c2ccccc2Cl)c2ccccc2N1S(=O)(=O)c1ccc(Cl)cc1` [Compound A7, (E)-3-(2-chlorobenzylidene)-1-((4-chlorophenyl)sulfonyl)indolin-2-one] gave a melting point of 172.4 to 173.1 °C. On MDM2, this compound registered a Ki of 1.53 ± 0.19 µM. The same compound came in with a Ki on MDMX of 20.4 ± 2.62 µM.

`O=C1/C(=C/c2ccccc2Cl)c2ccccc2N1C(=O)c1cccc(Cl)c1` [Compound B2, (E)-1-(3-chlorobenzoyl)-3-(2-chlorobenzylidene)indolin-2-one]: the melting point lay in the range of 219 to 220.8 °C. Affinity on MDM2 was put at a Ki of 8.43 ± 1.58 µM. Besides, the Ki at MDMX is over 50 µM.

For `O=C1/C(=C/c2ccc(Cl)cc2)c2ccccc2N1C(=O)c1cccc(Cl)c1` [Compound B10, (E)-1-(3-chlorobenzoyl)-3-(4-chlorobenzylidene)indolin-2-one], the melting point lay within 141.3 to 142.3 °C. Moreover, affinity at MDM2 was put at a Ki of 12.5 ± 1.04 µM. At MDMX, this compound returned a Ki of over 50 µM.

Compound `O=C1/C(=C/c2ccccc2Cl)c2ccccc2N1C(=O)c1ccccc1Cl` [Compound B1, (E)-1-(2-chlorobenzoyl)-3-(2-chlorobenzylidene)indolin-2-one] showed a melting point of 214.5 to 216.2 °C. The compound further displayed a Ki on MDM2 of 10.2 ± 2.01 µM. For the same compound, the inhibition constant (Ki) on MDMX was over 50 µM.

On to `Cc1ccc(C(=O)N2C(=O)/C(=C/c3ccccc3Cl)c3ccccc32)cc1` [Compound B6, (E)-3-(2-chlorobenzylidene)-1-(4-methylbenzoyl)indolin-2-one], for which the melting point was 145.3 to 146.9 °C. Further, the affinity on MDM2, expressed as Ki, was 22.4 ± 3.64 µM. The Ki at MDMX is over 50 µM.

Take `O=C1/C(=C/c2ccccc2Cl)c2ccccc2N1S(=O)(=O)c1ccccc1Cl` [Compound A5, (E)-3-(2-chlorobenzylidene)-1-((2-chlorophenyl)sulfonyl)indolin-2-one]: the melting point fell in the range of 157.2 to 158.1 °C. The same compound returned an inhibition constant Ki at MDM2 of 3.43 ± 0.57 µM. On MDMX, this compound showed an inhibitory constant (Ki) of 42.1 ± 6.35 µM.

`Cc1cccc(S(=O)(=O)N2C(=O)/C(=C/c3cccc(Cl)c3)c3ccccc32)c1` [Compound A10, (E)-3-(3-chlorobenzylidene)-1-(m-tolylsulfonyl)indolin-2-one] returned a melting point of 147.4 to 149.2 °C. For the same compound, at MDM2 (setting [1]), the inhibition constant (Ki) worked out at 5.36 ± 1.06 µM. On MDMX (setting [2]), the inhibition constant Ki was over 50 µM.

On to `O=C1/C(=C/c2cccc(Cl)c2)c2ccccc2N1S(=O)(=O)c1cccc([N+](=O)[O-])c1` [Compound A22, (E)-3-(3-chlorobenzylidene)-1-((3-nitrophenyl)sulfonyl)indolin-2-one], for which the melting point fell in the range of 195.3 to 197 °C. Moreover, the inhibition constant Ki on MDM2 was 1.39 ± 0.21 µM. Also, the inhibitory constant (Ki) at MDMX was found to be 13.6 ± 1.47 µM.

With `O=C1/C(=C/c2cccc(Cl)c2)c2ccccc2N1C(=O)c1cccc(Cl)c1` [Compound B8, (E)-1-(3-chlorobenzoyl)-3-(3-chlorobenzylidene)indolin-2-one], the melting point lay in the range of 112.4 to 114 °C. The same compound came in with an inhibition constant Ki on MDM2 of 8.63 ± 1.55 µM. For the same compound, at MDMX, the Ki is over 50 µM.

`O=C1/C(=C/c2cccc(Cl)c2)c2ccccc2N1C(=O)c1ccc(Cl)cc1` [Compound B9, (E)-1-(4-chlorobenzoyl)-3-(3-chlorobenzylidene)indolin-2-one] displayed a melting point of 103.5 to 104.8 °C. Further, the affinity at MDM2, expressed as Ki, was 15.9 ± 1.96 µM. Moreover, the inhibition constant Ki on MDMX is over 50 µM.

`Cc1ccc(S(=O)(=O)N2C(=O)/C(=C/c3ccccc3Cl)c3ccccc32)cc1` [Compound A4, (E)-3-(2-chlorobenzylidene)-1-tosylindolin-2-one] gave a melting point of 148.9 to 150.5 °C. For the same compound, the Ki on MDM2 was 10.2 ± 1.45 µM. The compound also displayed a Ki on MDMX of over 50 µM.

With `O=C1/C(=C/c2ccc(Cl)cc2)c2ccccc2N1S(=O)(=O)c1ccccc1` [Compound A28, (E)-3-(4-chlorobenzylidene)-1-(phenylsulfonyl)indolin-2-one], the inhibitory constant (Ki) at MDM2 is 2.18 ± 0.29 µM; at MDMX, 37.4 ± 3.57 µM.

As to `O=C1/C(=C/c2ccccc2Cl)c2ccccc2N1C(=O)c1ccc(Cl)cc1` [Compound B3, (E)-1-(4-chlorobenzoyl)-3-(2-chlorobenzylidene)indolin-2-one], the melting point lay in the range of 221.3 to 222.7 °C. This compound also displayed an inhibition constant Ki on MDM2 of 7.86 ± 1.34 µM. The compound further displayed an inhibition constant (Ki) at MDMX of over 50 µM.

For `COc1ccc(S(=O)(=O)N2C(=O)/C(=C/c3cccc(Cl)c3)c3ccccc32)cc1` [Compound A23, (E)-3-(3-chlorobenzylidene)-1-((4-methoxyphenyl)sulfonyl)indolin-2-one], the melting point is 175.1 to 176.7 °C. Moreover, the affinity at MDM2, expressed as Ki, was 3.77 ± 0.45 µM. Also, at MDMX, the Ki came out at 42.2 ± 4.73 µM.

Regarding `Cc1cccc(S(=O)(=O)N2C(=O)/C(=C/c3ccc(Cl)cc3)c3ccccc32)c1` [Compound A25, (E)-3-(4-chlorobenzylidene)-1-(m-tolylsulfonyl)indolin-2-one], the figures for the Ki on MDM2 (setting [1]) and at MDMX (setting [2]) were 4.93 ± 0.47 µM and over 50 µM, respectively.

For `Cc1ccccc1S(=O)(=O)N1C(=O)/C(=C/c2ccccc2Cl)c2ccccc21` [Compound A2, (E)-3-(2-chlorobenzylidene)-1-(o-tolylsulfonyl)indolin-2-one], the inhibition constant (Ki) on MDM2 was 7.23 ± 1.03 µM; on MDMX it was over 50 µM.

`Cc1ccccc1C(=O)N1C(=O)/C(=C/c2ccccc2Cl)c2ccccc21` [Compound B4, (E)-3-(2-chlorobenzylidene)-1-(2-methylbenzoyl)indolin-2-one] showed a melting point of 111.2 to 112.8 °C. On MDM2, this compound gave a Ki of 16.4 ± 2.77 µM. The inhibition constant (Ki) on MDMX is over 50 µM.

Regarding `Cc1ccc(S(=O)(=O)N2C(=O)/C(=C/c3ccc(Cl)cc3)c3ccccc32)cc1` [Compound A26, (E)-3-(4-chlorobenzylidene)-1-tosylindolin-2-one], the melting point fell in the range of 134.1 to 135.6 °C. On MDM2 (setting [1]), the inhibition constant (Ki) amounted to 4.68 ± 0.39 µM. Moreover, on MDMX (setting [2]), the Ki was over 50 µM.

`Cc1ccc(S(=O)(=O)N2C(=O)/C(=C/c3cccc(Cl)c3)c3ccccc32)cc1` [Compound A11, (E)-3-(3-chlorobenzylidene)-1-tosylindolin-2-one]: the melting point was in the range of 136.3 to 138.1 °C. The compound also showed an inhibitory constant (Ki) at MDM2 of 5.19 ± 1.25 µM. This compound also had an inhibition constant (Ki) on MDMX of over 50 µM.

Take `Cc1ccccc1S(=O)(=O)N1C(=O)/C(=C/c2cccc(Cl)c2)c2ccccc21` [Compound A9, (E)-3-(3-chlorobenzylidene)-1-(o-tolylsulfonyl)indolin-2-one]: the melting point fell in the range of 140.9 to 143.2 °C. The Ki at MDM2 (setting [1]) came out at 6.95 ± 0.97 µM. Besides, the Ki on MDMX (setting [2]) was over 50 µM.

For the compound `O=C1/C(=C/c2cccc(Cl)c2)c2ccc(Cl)cc2N1S(=O)(=O)c1cccc(Cl)c1` [Compound A30, (E)-6-chloro-3-(3-chlorobenzylidene)-1-((3-chlorophenyl)sulfonyl)indolin-2-one], the melting point was in the range of 132.6 to 133.8 °C. For the same compound, the Ki on MDM2 (setting [1]) was found to be 1.39 ± 0.15 µM. Moreover, the inhibition constant Ki at MDMX (setting [2]) was found to be 29 ± 2.18 µM.

In the case of `Cc1cccc(C(=O)N2C(=O)/C(=C/c3ccccc3Cl)c3ccccc32)c1` [Compound B5, (E)-3-(2-chlorobenzylidene)-1-(3-methylbenzoyl)indolin-2-one], the melting point is 128.2 to 129.7 °C. In addition, on MDM2, the Ki is 20.2 ± 3.05 µM. Also, the Ki on MDMX was over 50 µM.

The compound `O=C1/C(=C/c2cccc(Cl)c2)c2ccccc2N1C(=O)c1ccccc1Cl` [Compound B7, (E)-1-(2-chlorobenzoyl)-3-(3-chlorobenzylidene)indolin-2-one] displayed a melting point of 108.3 to 109.7 °C. The affinity at MDM2 corresponds to a Ki of 14.9 ± 2.37 µM. The same compound returned a Ki on MDMX of over 50 µM.

With `Cc1cccc(S(=O)(=O)N2C(=O)/C(=C/c3ccccc3Cl)c3ccccc32)c1` [Compound A3, (E)-3-(2-chlorobenzylidene)-1-(m-tolylsulfonyl)indolin-2-one], the results for the inhibitory constant (Ki) at MDM2 and at MDMX were 5.58 ± 0.99 µM and over 50 µM, respectively.

Turning to `O=C1/C(=C/c2cccc(Cl)c2)c2ccccc2N1S(=O)(=O)c1ccccc1` [Compound A8, (E)-3-(3-chlorobenzylidene)-1-(phenylsulfonyl)indolin-2-one], the melting point lay within 115.1 to 117.3 °C. This compound yielded a Ki at MDM2 of 1.47 ± 0.15 µM. On MDMX, this compound showed an inhibition constant Ki of 10.3 ± 1.45 µM.

With `O=C1/C(=C/c2ccccc2Cl)c2ccccc2N1S(=O)(=O)c1ccccc1` [Compound A1, (E)-3-(2-chlorobenzylidene)-1-(phenylsulfonyl)indolin-2-one], the melting point lay within 138.2 to 139.9 °C. The compound also displayed a Ki at MDM2 of 4.39 ± 0.82 µM. At MDMX, this compound showed a Ki of over 50 µM.
